Experimental data as given in patent US20230150924A1, “NOVEL COMPOUND HAVING CANCER METASTASIS INHIBITORY ACTIVITY, PREPARATION METHOD THEREFOR, AND PHARMACEUTICAL COMPOSITION FOR INHIBITING CANCER METASTASIS AND INVASION OR TREATING COLORECTAL CANCER, COMPRISING COMPOUND” (CELLGENTEK CO., LTD., priority 2019, published 2023).

What was measured:
KAI1 promoter = KAI1 promoter luciferase reporter assay in transfected Caco2 cells; assay type: cell-based, human; conditions: Homo sapiens, Caco-2, 16 h, 1 μM compound, 16 hours, transfected Caco2 cells, luciferase activity relative to DMSO control (=1); read-out: Relative KAI promoter activity
[1] = system: invasion of colorectal cancer cells; experiment: In vivo relative invation (invasion; EV and KITENIN controls, no method described); conditions: relative to EV (=1); KIT = KITENIN

| Structure (SMILES) | fold induction at 1 µM (KAI1 promoter) | In vivo relative invation [1] |
| --- | --- | --- |
| O=C(CNC(=O)c1ccc(CN2CCC(N3CCCCC3)CC2)cc1)c1ccccc1 [Example 260, 4-([1,4′-bipiperidin]-1′-ylmethyl)-N-(2-oxo-2-phenylethyl)benzamide] | 1.33 | 1.092 |
| O=C(CNC(=O)c1ccc(CN2CCN(c3ccc([N+](=O)[O-])cc3)CC2)cc1)c1ccccc1 [Example 261, 4-((4-(4-nitrophenyl)piperazin-1-yl)methyl)-N-(2-oxo-2-phenylethyl)benzamide] | 1.25 | 1.197 |
| CN(Cc1ccc(C(=O)NCC(=O)c2ccccc2)cc1)c1ccccc1 [Example 262, 4-((methyl (phenyl)amino)methyl)-N-(2-oxo-2-phenylethyl)benzamide] | 1.54 | 1.09 |
| CCN(Cc1ccc(C(=O)NCC(=O)c2ccccc2)cc1)c1ccccc1 [Example 263, 4-((ethyl(phenyl)amino)methyl)-N-(2-oxo-2-phenylethyl)benzamide] | 2.23 | 1.301 |
| O=C(CNC(=O)c1ccc(CN2CCN(c3ccccn3)CC2)cc1)c1ccccc1 [Example 264, N-(2-oxo-2-phenylethyl)-4-((4-(pyridin-2-yl)piperazin-1-yl)methyl)benzamide] | 1.91 | 1.199 |
| C=CCN(CC=C)Cc1ccc(C(=O)NCC(=O)c2ccccc2)cc1 [Example 265, 4-((diallylamino)methyl)-N-(2-oxo-2-phenylethyl)benzamide] | 1.91 | 1.343 |
| CN(Cc1ccccc1)Cc1ccc(C(=O)NCC(=O)c2ccccc2)cc1 [Example 266, 4-((benzyl(methyl)amino)methyl)-N-(2-oxo-2-phenylethyl)benzamide] | 2.21 | 1.401 |
| CN(CCO)Cc1ccc(C(=O)NCC(=O)c2ccccc2)cc1 [Example 267, 4-(((2-hydroxyethyl) (methyl)amino)methyl)-N-(2-oxo-2-phenylethyl)benzamide] | 3.56 | 0.9046 |
| CCCCN(CCO)Cc1ccc(C(=O)NCC(=O)c2ccccc2)cc1 [Example 268, 4-((butyl(2-hydroxyethyl)amino)methyl)-N-(2-oxo-2-phenylethyl)benzamide] | 1.6 | 1.22 |
| CC(C)(C)OC(=O)N1CCN(Cc2ccc(C(=O)NCC(=O)c3ccccc3)cc2)CC1 [Example 269, tert-butyl 4-(4-((2-oxo-2-phenylethyl)carbamoyl)benzyl) piperazine-1-carboxylate] | 1.38 | 1.163 |
| O=C(CNC(=O)c1ccc(CN(C2CCCCC2)C2CCCCC2)cc1)c1ccccc1 [Example 270, 4-((dicyclohexylamino)methyl)-N-(2-oxo-2-phenylethyl)benzamide] | 1.47 | 1.238 |
| CCCCN(C)Cc1ccc(C(=O)NCC(=O)c2ccccc2)cc1 [Example 271, 4-((butyl (methyl)amino)methyl)-N-(2-oxo-2-phenylethyl)benzamide] | 1.31 | 1.228 |
| CCCN(CCC)Cc1ccc(C(=O)NCC(=O)c2ccccc2)cc1 [Example 272, 4-((dipropylamino)methyl)-N-(2-oxo-2-phenylethyl)benzamide] | 1.59 | 1.23 |
| CCCCN(CC)Cc1ccc(C(=O)NCC(=O)c2ccccc2)cc1 [Example 273, 4-((butyl(ethyl)amino)methyl)-N-(2-oxo-2-phenylethyl)benzamide] | 1.2 | 1.171 |
| CCN(CCO)Cc1ccc(C(=O)NCC(=O)c2ccccc2)cc1 [Example 274, 4-((ethyl(2-hydroxyethyl)amino)methyl)-N-(2-oxo-2-phenylethyl)benzamide] | 5.27 | 1.219 |
| C#CN(C)Cc1ccc(C(=O)NCC(=O)c2ccccc2)cc1 [Example 275, 4-((ethynyl(methyl)amino)methyl)-N-(2-oxo-2-phenylethyl)benzamide] | 6.85 | 1.146 |
| O=C(CNC(=O)c1ccc(CN2CCOCC2)cc1)c1ccccc1 [Example 276, 4-(morpholinomethyl)-N-(2-oxo-2-phenylethyl)benzamide] | 3.39 | 1.224 |
| CCOC(=O)N1CCN(Cc2ccc(C(=O)NCC(=O)c3ccccc3)cc2)CC1 [Example 277, ethyl 4-(4-((2-oxo-2-phenylethyl)carbamoyl)benzyl)piperazine-1-carboxylate] | 1.3 | 1.126 |
| CC1CN(Cc2ccc(C(=O)NCC(=O)c3ccccc3)cc2)CC(C)O1 (centres unmarked) [Example 278, 4-((2,6-dimethylmorpholino)methyl)-N-(2-oxo-2-phenylethyl)benzamide] | 1.38 | 1.217 |

| Structure (SMILES) | fold induction at 1 µM (KAI1 promoter) | In vivo relative invation [1] |
| --- | --- | --- |
| COc1cccc(C(=O)CNC(=O)c2cccc(CN3CCc4ccccc4C3)c2)c1 [Example 279, 3-((3,4-dihydroisoquinolin-2(1H)-yl)methyl)-N-(2-(3-methoxyphenyl)-2-oxoethyl)benzamide] | 2.28 | 1.187 |
| COc1cccc(C(=O)CNC(=O)c2cccc(CN(C)C3CCCCC3)c2)c1 [Example 280, 3-((cyclohexyl(methyl)amino)methyl)-N-(2-(3-methoxyphenyl)-2-oxoethyl)benzamide] | 1.63 | 1.195 |
| COc1cccc(C(=O)CNC(=O)c2cccc(CC3CCN(c4ccccc4F)CC3)c2)c1 [Example 281, 3-((1-(2-fluorophenyl)piperidin-4-yl)methyl)-N-(2-(3-methoxyphenyl)-2-oxoethyl)benzamide] | 1.52 | 1.236 |
| COc1cccc(C(=O)CNC(=O)c2cccc(CN3CCN(c4ccccc4OC)CC3)c2)c1 [Example 282, N-(2-(3-methoxyphenyl)-2-oxoethyl)-3-((4-(2-methoxyphenyl)piperazin-1-yl)methyl)benzamide] | 1.47 | 1.214 |
| COc1cccc(C(=O)CNC(=O)c2cccc(CN3CCC(N4CCCCC4)CC3)c2)c1 [Example 283, 3-([1,4′-bipiperidin]-1′-ylmethyl)-N-(2-(3-methoxyphenyl)-2-oxoethyl)benzamide] | 1.33 | 1.235 |
| COc1cccc(C(=O)CNC(=O)c2cccc(CN3CCN(c4ccccn4)CC3)c2)c1 [Example 284, N-(2-(3-methoxyphenyl)-2-oxoethyl)-3-((4-(pyridin-2-yl)piperazin-1-yl)methyl)benzamide] | 1.44 | 1.276 |
| C=CCN(CC=C)Cc1cccc(C(=O)NCC(=O)c2cccc(OC)c2)c1 [Example 285, 3-((diallylamino)methyl)-N-(2-(3-methoxyphenyl)-2-oxoethyl)benzamide] | 1.47 | 1.247 |
| COc1cccc(C(=O)CNC(=O)c2cccc(CN(C)Cc3ccccc3)c2)c1 [Example 286, 3-((benzyl (methyl)amino)methyl)-N-(2-(3-methoxyphenyl)-2-oxoethyl)benzamide] | 1.43 | 1.233 |
| CCN(C)Cc1cccc(C(=O)NCC(=O)c2cccc(OC)c2)c1 [Example 287, 3-((ethyl (methyl)amino)methyl)-N-(2-(3-methoxyphenyl)-2-oxoethyl)benzamide] | 2.06 | 1.376 |
| CCCCN(CCO)Cc1cccc(C(=O)NCC(=O)c2cccc(OC)c2)c1 [Example 288, 3-((butyl (2-hydroxyethyl)amino)methyl)-N-(2-(3-methoxyphenyl)-2-oxoethyl)benzamide] | 1.73 | 1.222 |
| COc1cccc(C(=O)CNC(=O)c2cccc(CN3CCN(C(=O)OC(C)(C)C)CC3)c2)c1 [Example 289, tert-butyl 4-(3-((2-(3-methoxyphenyl)-2-oxoethyl)carbamoyl)benzyl)piperazine-1-carboxylate] | 1.61 | 1.263 |
| CCCCN(CC)Cc1cccc(C(=O)NCC(=O)c2cccc(OC)c2)c1 [Example 290, 3-((butyl (ethyl)amino)methyl)-N-(2-(3-methoxyphenyl)-2-oxoethyl)benzamide] | 1.23 | 0.9234 |
| CCCCCN(CCCCC)Cc1cccc(C(=O)NCC(=O)c2cccc(OC)c2)c1 [Example 291, 3-((dipentylamino)methyl)-N-(2-(3-methoxyphenyl)-2-oxoethyl)benzamide] | 1.62 | 1.126 |
| COc1cccc(C(=O)CNC(=O)c2cccc(CN3CCN(CCO)CC3)c2)c1 [Example 292, 3-((4-(2-hydroxyethyl)piperazin-1-yl)methyl)-N-(2-(3-methoxyphenyl)-2-oxoethyl)benzamide] | 1.45 | 1.238 |
| COc1cccc(C(=O)CNC(=O)c2cccc(CN3CCOCC3)c2)c1 [Example 293, N-(2-(3-methoxyphenyl)-2-oxoethyl)-3-(morpholinomethyl)benzamide] | 1.25 | 1.174 |
| CCCN(CC)Cc1cccc(C(=O)NCC(=O)c2cccc(OC)c2)c1 [Example 294, 3-((ethyl(propyl)amino)methyl)-N-(2-(3-methoxyphenyl)-2-oxoethyl)benzamide] | 1.57 | 1.033 |
| COc1cccc(C(=O)CNC(=O)c2cccc(CN3CC(C)OC(C)C3)c2)c1 (centres unmarked) [Example 295, 3-((2,6-dimethylmorpholino)methyl)-N-(2-(3-methoxyphenyl)-2-oxoethyl)benzamide] | 1.52 | 1.311 |
| CN(C)Cc1ccccc1C(=O)NCC(=O)c1ccccc1 [Example 296, 2-((dimethylamino)methyl)-N-(2-oxo-2-phenylethyl)benzamide] | 1.53 | 1.026 |
